Values quoted from earlier work as cited in patent US8877779B2 (priority 2007, dated 2014).

Conditions: Proc. Natl. Acad. Sci. U.S.A. 97: 4938-4943, 2000

SMILES: O=C1NCN(c2ccccc2)C12CCN([C@@H]1CC[C@H]3CCCc4cccc1c43)CC2 [Ro64-6198]
- bioavailability (BA): 4%
